Experimental data taken from patent US10508088B2, “Methods using HDAC11 inhibitors” (FORMA Therapeutics, Inc., priority 2016, dated 2019).

target: Full length human recombinant HDAC11 (Homo sapiens (Human), UniProt Q96DB2); assay: Enzymatic HDAC11 assay, electrophoretic mobility shift; assay type: biochemical; conditions: substrate FAM-RHKK(tri-fluor-Ac)-NH2, read-out: HDAC11 IC50 Range
Protocol: The enzymatic HDAC11 assay was performed using electrophoretic mobility shift assay. Full length human recombinant HDAC11 protein was expressed in baculoviral system and purified by affinity chromatography. The enzymatic reactions were assembled in 384 well plates in a total volume of 25 μL in a reaction buffer composing: 100 mM HEPES, pH 7.5, 25 mM KCl, 0.1% bovine serum albumin, 0.01% Triton X-100, 1% DMSO (from compounds) 2 μM of the fluorescently labeled peptide substrate and enzyme. The enzyme was added at a final concentration of 10 nM. The peptide substrate FAM-RHKK(tri-fluor-Ac)-NH2 was used. The compounds were tested at 12 concentrations spaced by 3× dilution intervals. Negative control samples (0%-inhibition in the absence of inhibitor) and positive control samples (100%-inhibition) were assembled in replicates of four in each assay plate. The reactions were incubated at 25° C. and quenched by the addition of 45 μL of termination buffer (100 mM HEPES, pH 7.5, 0.01% Triton X-100, 0.05% SDS).
The terminated assay plates were analyzed on LabChip® 3000 microfluidic electrophoresis instrument (Perkin Elmer/Caliper Life Sciences). The fluorescence intensity of the electrophoretically separated de-acetylated product and substrate peptide was measured. Activity in each sample was determined as the product to sum ratio (PSR):P/(S+P), where P is the peak height of the product peptide and S is the peak height of the substrate peptide. Percent inhibition (Pinh) is determined using the following equation: Pinh=(PSR0%−PSRinh)/(PSR0%−PSR100%)*100,
where PSRinh is the product sum ratio in the presence of inhibitor, PSR0% is the average product sum ration in the absence of inhibitor and PSR100% is the average product sum ratio in 100%-inhibition control samples. The IC50 values of inhibitors were determined by fitting the percent inhibition curves with 4 parameter dose-response model using XLfit 4 software.

Chain of Full length human recombinant HDAC11 (Q96DB2 whole entry): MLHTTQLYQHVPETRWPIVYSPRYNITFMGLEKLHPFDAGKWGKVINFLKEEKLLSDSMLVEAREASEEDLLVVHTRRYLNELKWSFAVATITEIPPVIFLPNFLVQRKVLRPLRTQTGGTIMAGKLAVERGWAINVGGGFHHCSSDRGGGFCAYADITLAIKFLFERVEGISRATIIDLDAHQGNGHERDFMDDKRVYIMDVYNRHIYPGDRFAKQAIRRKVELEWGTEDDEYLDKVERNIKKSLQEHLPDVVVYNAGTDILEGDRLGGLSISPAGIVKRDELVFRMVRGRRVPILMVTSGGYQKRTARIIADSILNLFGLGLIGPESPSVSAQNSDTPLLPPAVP

SMILES	IC50 [nM]
O=C(NO)c1cccc2c1OC1(CC2)CCN(C(=O)c2ccc(F)cc2)CC1 [II-75, 1′-(4-fluorobenzoyl)-N-hydroxyspiro[chromane-2,4′-piperidine]-8-carboxamide]	> 1000
O=C(NO)c1cccc2c1OC1(CC2)CCN(S(=O)(=O)C2CCCCC2)CC1 [II-76, 1′-(cyclohexylsulfonyl)-N-hydroxyspiro[chromane-2,4′-piperidine]-8-carboxamide]	> 1000
CC1(C(=O)N2CCC3(CCc4cccc(C(=O)NO)c4O3)CC2)CCOCC1 [II-77, N-hydroxy-1′-(4-methyltetrahydro-2H-pyran-4-carbonyl)spiro[chromane-2,4′-piperidine]-8-carboxamide]	> 1000
O=C(NO)c1cccc2c1OC1(CC2)CCN(C(=O)Cc2ccccc2)CC1 [II-79, N-hydroxy-1′-(2-phenylacetyl)spiro[chromane-2,4′-piperidine]-8-carboxamide]	> 1000
O=C(NO)c1cccc2c1OC1(CC2)CCN(Cc2ccc(F)cc2)CC1 [II-80, 1′-(4-fluorobenzyl)-N-hydroxyspiro[chromane-2,4′-piperidine]-8-carboxamide]	> 1000
O=C(NO)c1cccc2c1OC1(CC2)CCN(C2CCCCC2)CC1 [II-81, 1′-cyclohexyl-N-hydroxyspiro[chromane-2,4′-piperidine]-8-carboxamide]	> 1000
O=C(NO)c1cccc2c1OC1(CC2)CCN(c2ccc(C(F)(F)F)cn2)CC1 [II-82, N-hydroxy-1′-(5-(trifluoromethyl)pyridin-2-yl)spiro[chromane-2,4′-piperidine]-8-carboxamide]	> 1000
Cc1ccc(N2CCC3(CCc4cccc(C(=O)NO)c4O3)CC2)cc1F [II-83, 1′-(3-fluoro-4-methylphenyl)-N-hydroxyspiro[chromane-2,4′-piperidine]-8-carboxamide]	> 1000
O=C(NO)c1cccc2c1CCC1(CCN(Cc3ccc(Cl)cc3)C1=O)C2 (stereo not shown) [II-87, 1′-(4-chlorobenzyl)-N-hydroxy-2′-oxo-3,4-dihydro-1H-spiro[naphthalene-2,3′-pyrrolidine]-5-carboxamide]	> 1000

Other lines, results leading:

IC50 [nM]	SMILES
> 1000	O=C(NO)c1cccc2c1CC1(CC2)CCN(c2ccccc2C(F)(F)F)C1=O (stereo not shown) [II-73, N-hydroxy-2′-oxo-1′-(2-(trifluoromethyl)phenyl)-3,4-dihydro-1H-spiro[naphthalene-2,3′-pyrrolidine]-8-carboxamide]
> 1000	CN(C)C(=O)N1CCC2(CCc3cccc(C(=O)NO)c3O2)CC1 [II-74, N8-hydroxy-N1′,N1′-dimethylspiro[chromane-2,4′-piperidine]-1′,8-dicarboxamide]
< 500	O=C(NO)c1cccc2c1OC1(CC2)CCN(C(=O)C2(c3cccc(C(F)(F)F)c3)CC2)CC1 [II-78, N-hydroxy-1′-(1-(3-(trifluoromethyl)phenyl)cyclopropane-1-carbonyl)spiro[chromane-2,4′-piperidine]-8-carboxamide]
< 500	O=C(NO)c1cccc2c1CCC1(CCN(Cc3ccc(Cl)c(C(F)(F)F)c3)C1=O)C2 (stereo not shown) [II-84, 1′-(4-chloro-3-(trifluoromethyl)benzyl)-N-hydroxy-2′-oxo-3,4-dihydro-1H-spiro[naphthalene-2,3′-pyrrolidine]-5-carboxamide]
< 500	O=C(NO)c1cccc2c1CCC1(CCN(Cc3ccc(C(F)(F)F)cc3)C1=O)C2 (stereo not shown) [II-85, N-hydroxy-2′-oxo-1′-(4-(trifluoromethyl)benzyl)-3,4-dihydro-1H-spiro[naphthalene-2,3′-pyrrolidine]-5-carboxamide]
< 500	O=C(NO)c1cccc2c1CCC1(CCN(Cc3ccc(C(F)(F)F)c(F)c3)C1=O)C2 (stereo not shown) [II-86, 1′-(3-fluoro-4-(trifluoromethyl)benzyl)-N-hydroxy-2′-oxo-3,4-dihydro-1H-spiro[naphthalene-2,3′-pyrrolidine]-5-carboxamide]
< 500	O=C(NO)c1cccc2c1CCC1(CCN(c3ccc(C(F)(F)F)cc3)C1=O)C2 (stereo not shown) [II-88, N-hydroxy-2′-oxo-1′-(4-(trifluoromethyl)phenyl)-3,4-dihydro-1H-spiro[naphthalene-2,3′-pyrrolidine]-5-carboxamide]
